Laboratory results reported in publication PMC8804135 (Neurotherapeutics, 2021).
Numbered stars: 1 amine (or outer) side, 2 acyl side, 3 side chain; on linkers, the order of the positions; unused ones are H or OH. Bridge positions count the residues as written; N and C are the ends. Square brackets hold non-standard residues; d marks the D form. Ends that are not written are not given here. Peptide text beside a SMILES is read from it. dAbu(3S-yl) = C[C@@H]([C@@H](N[*:1])C(=O)[*:2])[*:3]; pGlu = O=C1CC[C@@H](C(=O)O)N1

Key:
Assay type in all cases: cell-based
[1] = target: T1, GAL1R (Homo sapiens, UniProt P47211); assay: cAMP Hunter eXpress GAL1R CHO-K1 GPCR assay (inhibition of forskolin-induced cAMP); parameters: expressed in transfected cells; settings: Table 3; CHO-K1 cells expressing GAL1R; 20 µM forskolin; 10 µM to 5 nM; (average) ratio, (n) in cell = number of assays; NA = ratio above 1000
T1 sequence (P47211 1-349): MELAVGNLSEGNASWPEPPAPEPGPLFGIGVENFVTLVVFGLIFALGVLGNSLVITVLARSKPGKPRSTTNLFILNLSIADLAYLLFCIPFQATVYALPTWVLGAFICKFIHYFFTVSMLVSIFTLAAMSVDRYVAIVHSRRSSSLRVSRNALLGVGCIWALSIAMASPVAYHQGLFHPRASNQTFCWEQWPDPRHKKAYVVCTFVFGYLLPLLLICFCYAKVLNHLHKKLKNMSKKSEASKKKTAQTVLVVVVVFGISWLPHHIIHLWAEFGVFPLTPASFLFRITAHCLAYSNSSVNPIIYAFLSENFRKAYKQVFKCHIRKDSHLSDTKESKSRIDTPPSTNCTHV
Method: To evaluate the ability of lanthipeptides to […] via GAL1R signaling, we used the cAMP Hunter™ eXpress GAL1R CHO-K1 GPCR Assay from Eurofins-DiscoverX. The assay was performed according to the manufacturer’s instructions. Briefly, for one assay, CHO-K1 cells expressing GAL1R were diluted in AssayComplete™ Cell Plating 2 Reagent, and 100 µl was seeded into each well of a 96-well plate. The plate was incubated at 37 °C, 5% CO2 in a humidified incubator. After 24 h of incubation, the media was aspirated, and 45 µl cell assay buffer/antibody mixture was added to all wells. […] Fifteen µl of the serial dilutions was applied in duplicates to the cells. The concentration of forskolin in the assay was 20 µM. The agonists were incubated for 30 min at 37 °C. Next, 15 µL Antibody Solution and 60 μL cAMP Working Detection Solution were added, and the plate was incubated for 1 h in the dark at room temperature. Finally, 60 μL cAMP Solution A was added and, after 3 h of incubation in the dark at room temperature, the chemiluminescent signal was read with a Synergy HT Biotek reader.

[2] = target: T2, GAL2R (Homo sapiens, UniProt O43603); assay: PathHunter eXpress β-arrestin recruitment assay, GAL2R; parameters: expressed in transfected cells; settings: Table 3; CHO-K1 cells co-expressing GAL2R and β-arrestin 2; 10 µM to 5 nM; (average) ratio, (n) in cell = number of assays; NA = ratio above 1000
T2 sequence (O43603 1-387): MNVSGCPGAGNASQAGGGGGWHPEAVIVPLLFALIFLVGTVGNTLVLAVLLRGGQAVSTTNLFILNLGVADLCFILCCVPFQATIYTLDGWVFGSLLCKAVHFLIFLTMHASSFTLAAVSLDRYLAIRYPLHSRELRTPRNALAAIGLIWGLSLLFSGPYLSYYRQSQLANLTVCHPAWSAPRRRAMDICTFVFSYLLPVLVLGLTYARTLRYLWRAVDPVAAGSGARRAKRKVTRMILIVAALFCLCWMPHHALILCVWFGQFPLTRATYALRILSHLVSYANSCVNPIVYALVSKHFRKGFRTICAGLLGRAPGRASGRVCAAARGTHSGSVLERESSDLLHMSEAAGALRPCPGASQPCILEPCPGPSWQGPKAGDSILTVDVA
Method: (§1) To evaluate the ability of lanthipeptides to recruit ß-arrestins via GAL1R or via GAL2R, we used the PathHunter® eXpress GAL1R, CHO-K1, β-arrestin GPCR Assay and the PathHunter® eXpress GAL2R, CHO-K1, β-arrestin, GPCR Assay from Eurofins-DiscoverX. The assays were performed according to the manufacturer’s instructions. Briefly, for one assay, CHO-K1 cells co-expressing GAL1R or GAL2R and β-arrestin (isoform 2) were diluted in AssayComplete™ Cell Plating Reagent, and 100 µl was seeded into each well of a 96-well plate. The plate was incubated at 37 °C, 5% CO2 in a humidified incubator. A serial 3 × dilution of the lanthipeptides in water was made (10 µM to 5 nM). After 48 h of incubation, 10 µl of the serial dilutions was applied to the cells in duplicate. The agonists were incubated for 90 min at 37 °C. Next, 55 µL of Working Detection Solution was added, and after 1 h of incubation at room temperature in the dark, the chemiluminescent signal was read with a Synergy HT Biotek reader.

[3] = target: T2, GAL2R; assay: Fluo-4 Direct calcium assay (Ca efflux) in HEK293 cells overexpressing GAL2R; settings: Table 3; HEK293 cells stably overexpressing GAL2R; Fluo-4, from 10 µM; (average) ratio, (n) in cell = number of assays; NA = ratio above 1000
Method: Calcium efflux was measured by using a Fluo-4 Direct Calcium Assay purchased from Thermo Fisher Scientific. HEK293 cells with stable overexpression of GAL2R (HEKR2) (kindly provided by Harald Dargatz, Molecular, Cellular and Pharmacobiology Section, Institute of Pharmaceutical Biology, University of Bonn, 53,115 Bonn, Germany) were used for analysis of the lanthipeptides. HEKR2 cells were seeded in a 96-well plate and grown overnight in DMEM supplemented with 10% FBS, 1% penicillin–streptomycin, 100 µg/ml Normocin, and 500 µg/ml G418 at 37 °C, 5% CO2 in a humidified incubator.
The next day, when the cells were nearly confluent, an equal amount of 2 × Fluo-4 Direct™ calcium reagent loading solution, containing 5 mM probenecid, was added to the wells, and the plate was incubated for 1 h at 37 °C. A serial 3 × dilution of the agonist compound in water was made, and 10 µl of the serial dilutions was applied to the cells in duplicate. The starting concentration of agonist in the assay was 10 µM. After 1–2 h of incubation at room temperature, the fluorescence was measured with excitation at 485/20 nm and emission at 528/20 nm with a Synergy HT Biotek reader.

[4] = target: T1, GAL1R; assay: PathHunter eXpress β-arrestin recruitment assay, GAL1R; parameters: expressed in transfected cells; settings: Table 3; CHO-K1 cells co-expressing GAL1R and β-arrestin 2; 10 µM to 5 nM; (average) ratio, (n) in cell = number of assays; NA = ratio above 1000
Method: as §1

[5] = target: T1, GAL1R; assay: Label-free dynamic mass redistribution assay, SY5Y-R1 cells; parameters: expressed in transfected cells; settings: GAL1R-expressing SH-SY5Y cells; 1.6 nM to 5 µM
Method: SH-SY5Y cells stably expressing low levels of either human GAL1R (SY5Y-R1) or GAL2R (SY5Y-R2) and HEK293 cells expressing human GAL3R (HEK-R3) were seeded in EnSpire LFC-[…] well plates (Perkin Elmer) at a concentration of 12,000 cells per well and cultured overnight at 37 °C and 5% CO2. The medium was aspired, and the cells were washed four times with Hank’s balanced salt solution (HBSS) (+ calcium, + magnesium) supplemented with HEPES (20 mM), and the final volume was adjusted to 30 µl per well. The plate was allowed to equilibrate to assay temperature for 1 h in the EnSpire multimode reader (Perkin Elmer). Galanin-(1–30) (GL Biochem) was dissolved and diluted in water. […] A baseline read was first generated by taking 4 measurements before ligands were added. The plate was measured between 30 and 70 repeats, and each treatment was performed in triplicate. […] EC50 values were calculated using Prism 8.2.0 (GraphPad Software Inc.). The values are provided as means of all independent experiments.

Compound	EC50 ratios to Gal-(1-15), GAL1R cAMP [1]	EC50 ratios to Gal-(1-15), GAL2R ß-Arrestin [2]	EC50 ratios to Gal-(1-15), GAL2R Ca-efflux [3]	EC50 ratios to Gal-(1-15), GAL1R ß-Arrestin [4]	Stimulation of GAL1R, DMR in SY5YR1 cells [5]
GWNLNAAGYLLATHACGNHR (also: sidechain bridge or staple (positions not given here)) [Variant M50, methyllanthionine-containing galanin variant produced in L. lactis]	12.5 (1)	0.5 (1)	3.5 (2)	3.8 (1)	–
GWNLNAAGYLLGATAVCNHR (also: sidechain bridge or staple (positions not given here)) [Variant M51, methyllanthionine-containing galanin variant produced in L. lactis]	3.6 (1)	0.6 (2)	2.9 (2)	1.5 (2)	–
CC(C)C[C@H](NC(=O)[C@H](CC(C)C)NC(=O)[C@H](Cc1ccc(O)cc1)NC(=O)CNC(=O)[C@H](C)NC(=O)[C@H](C)NC(=O)[C@H](CC(N)=O)NC(=O)[C@H](CC(C)C)NC(=O)[C@H](CC(N)=O)NC(=O)[C@H](Cc1c[nH]c2ccccc12)NC(=O)[C@@H]1CCC(=O)N1)C(=O)N[C@@H](C)C(=O)N[C@H]1C(=O)N[C@@H](Cc2c[nH]cn2)C(=O)N[C@@H](C)C(=O)N[C@H](C(=O)NCC(=O)N[C@@H](CC(N)=O)C(=O)N[C@@H](Cc2c[nH]cn2)C(=O)N[C@@H](CCCNC(=N)N)C(=O)O)CS[C@H]1C [Variant M50b] ([pGlu]WNLNAAGYLLA[dAbu(3S-yl)]HACGNHR-OH; thioether 13-16; C-terminus assumed)	NA (2) (NA is not active; ratios above 1000 were considered to be not active)	4.7 (3)	2.8 (3)	NA (1) (NA is not active; ratios above 1000 were considered to be not active)	stimulate GAL2R only, not GAL1R
[pGlu]WNLNAAGYLLGPTAVC (also: sidechain bridge or staple (positions not given here)) [Variant M87, pyroglutamate- and methyllanthionine-containing galanin variant]	NA (1) (NA is not active; ratios above 1000 were considered to be not active)	4.8 (1)	1.9 (2)	260 (1)	–

More lines, now with the values ahead:

EC50 ratios to Gal-(1-15), GAL1R cAMP [1]	EC50 ratios to Gal-(1-15), GAL2R ß-Arrestin [2]	EC50 ratios to Gal-(1-15), GAL2R Ca-efflux [3]	EC50 ratios to Gal-(1-15), GAL1R ß-Arrestin [4]	Stimulation of GAL1R, DMR in SY5YR1 cells [5]	Compound
4.6 (1)	2.6 (1)	4.7 (1)	2.3 (1)	–	GWNLNAAGYLLGPHATGNCR (also: sidechain bridge or staple (positions not given here)) [Variant M74, methyllanthionine-containing galanin variant produced in L. lactis]
140 (2)	1.2 (3)	3.3 (3)	4.5 (2)	–	CC(C)C[C@H](NC(=O)[C@H](CC(C)C)NC(=O)[C@H](Cc1ccc(O)cc1)NC(=O)CNC(=O)[C@H](C)NC(=O)[C@H](C)NC(=O)[C@H](CC(N)=O)NC(=O)[C@H](CC(C)C)NC(=O)[C@H](CC(N)=O)NC(=O)[C@H](Cc1c[nH]c2ccccc12)NC(=O)[C@@H]1CCC(=O)N1)C(=O)NCC(=O)N[C@@H](C)C(=O)N[C@H]1C(=O)N[C@@H](C)C(=O)N[C@@H](C(C)C)C(=O)N[C@H](C(=O)N[C@@H](CC(N)=O)C(=O)N[C@@H](Cc2c[nH]cn2)C(=O)N[C@@H](CCCNC(=N)N)C(=O)O)CS[C@H]1C [Variant M54] ([pGlu]WNLNAAGYLLGA[dAbu(3S-yl)]AVCNHR-OH; thioether 14-17; C-terminus assumed)
